Measured values taken from article PMC8588511, “Chromane Derivatives from Underground Parts of Iris tenuifolia and Their In Vitro Antimicrobial, Cytotoxicity and Antiproliferative Evaluation” (Molecules, 2021).
Entries after “also recorded” stand apart in the source; their conditions may differ. Read-outs that look alike come from different tables or passages of the source.

Assays:
[1] = system: human cervix carcinoma cells (HeLa); assay: cytotoxicity assay (methylene blue); format: cell-based
Description: (§1) In this assay, K-562 (DSM ACC 10), THP-1 (DSM ACC 16), and HeLa (DSM ACC 57) were maintained in Roswell Park Memorial Institute (RPMI) 1640 medium (Cambrex 12-167F) while HUVEC (ATCC CRL-1730) and A549 (DSM ACC 107) were cultured in Dulbecco’s Modified Eagle’s Medium (DMEM) (Cambrex 12-614F). Cells that were grown in the appropriate cell culture medium were supplemented with 10 mL/L ultraglutamine 1 (Cambrex 17-605E/U1), 550 µL/L (50 mg/mL) gentamicin sulfate (Cambrex 17-518Z), and 10% heat inactivated fetal bovine serum (GIBCO Life Technologies 10270-106) at 37 °C. The tested compounds were dissolved in DMSO, and the cells were seeded in 96-well plates at a density of 1 × 10^4 cells/well. As for the antiproliferative effect of the compounds, the cells were incubated for 72 h, and GI50 values were evaluated to be defined as the concentration causing 50% inhibition of proliferation compared to the untreated control. With regard to the cytotoxic assay, HeLa cells were pre-incubated for 48 h without the test compounds. Then, the cells were exposed with different concentrations of compounds and incubated for 72 h. After that, the adherent HeLa cells were fixed by glutaraldehyde and stained with a 0.05% solutions of methylene blue (SERVA 29198) for 15 min. CC50 was evaluated to be defined as the concentration required for the death of 50% of the cell monolayer as compared to control groups. Under our experimental conditions, the optical density measured from the CellTiter-Blue reagent and methylene blue assay is proportional to the number of viable cells. In this experiment, absorbances were measured at 570 nm against the reference wavelength of 600 nm (CellTiter-Blue assay) and at 660 nm (methylene blue assay). Doxorubicin (Adriamycin®) and imatinib (Gleevec®) were used as positive controls for HUVEC, K-562, and HeLa cells. A repeat determination has been conducted in all experiments, and four replicates were assayed. The calculations of the different values of GI50 and CC50 were performed with software Magellan version 3.00 (Tecan Trading AG, Maennedorf, Switzerland).

[2] = system: human lung carcinoma cells (A549); assay: antiproliferation assay (CellTiter-Blue); format: cell-based; conditions: A549, 72 h, read-out: Antiproliferative Effect, GI50 (CI 95%)
Description: as §1

[3] = system: human umbilical vein endothelial cells (HUVEC); assay: antiproliferation assay (CellTiter-Blue); format: cell-based; conditions: 72 h, read-out: Antiproliferative Effect, GI50 (CI 95%)
Description: as §1

[4] = system: human chronic myeloid leukemia cells (K-562); assay: antiproliferation assay (CellTiter-Blue); format: cell-based; conditions: for GI50: K-562, 72 h, read-out: Antiproliferative Effect, GI50 (CI 95%)
Description: as §1

[5] = system: human acute monocytic leukemia cells (THP-1); assay: antiproliferation assay (CellTiter-Blue); format: cell-based; conditions: for GI50: THP-1, 72 h, read-out: Antiproliferative Effect, GI50 (CI 95%)
Description: as §1

[6] = system: Penicillium notatum (JP36 P1); assay: agar diffusion antifungal assay; format: cell-based
Description: (§2) Compounds 1, 2, 3, 5, 9, and 10 were tested for their antimicrobial activities against S. aureus (JMRC:STI 10760), B. subtilis (JMRC:STI 10880), S. aureus MRSA (JMRC: ST 33793) E. faecalis VRE (JMRC: ST 33700), E. coli (JMRC:ST 33699), P. aeruginosa (JMRC:ST 33771), P. aeruginosa (JMRC:ST 33772), M. vaccae (JMRC:STI 10670), S. salmonicolor (JMRC:ST 35974), C. albicans (JMRC:STI 25000), and P. notatum (JMRC:STI 50164)) using agar diffusion assay as previously published. Strains were obtained from the Jena Microbial Resource Collection (JMRC). The bacteria were cultivated on standard I nutrient agar in Petri dishes at 37 °C. Antifungal bioassays were conducted at 30 °C using the basidiomycetous yeast S. salmonicolor and the filamentous ascomycete P. notatum, which were cultivated on malt agar, and the ascomycetous yeast C. albicans, which was cultivated on yeast morphology agar. After inoculation of the test organisms, a disc (9 mm in diameter) was removed from the center of the Petri dish and 50 μL of the test solution (1 mg/mL in DMSO) was added to the cavity. After 18 h of incubation, the inhibiting areola were measured and documented as diameters in mm. Ciprofloxacin (5 µg/mL in deionized water) and amphotericin B (10 µg/mL in DMSO/MeOH 1:1) were used as reference substances against bacterial and fungal strains, respectively.

[7] = system: Sporobolomyces salmonicolor (549 H4); assay: agar diffusion antifungal assay; format: cell-based; conditions: 50 μL of 1 mg/mL in DMSO, 18 h, 30 °C, amphotericin B 10 µg/mL
Description: as §2

[8] = system: Candida albicans (C.alb.H8); assay: agar diffusion antifungal assay; format: cell-based; conditions: for zone of inhibition at 1000 µg/mL: read-out: Inhibition Zone of Test Microorganism; for antifungal activity in words: Candida albicans, agar diffusion
Description: as §2

[9] = system: Staphylococcus aureus (MRSA 134/94 R9); assay: agar diffusion antimicrobial assay; format: cell-based; conditions: 50 μL of 1 mg/mL in DMSO, 18 h, ciprofloxacin 5 µg/mL
Description: as §2

[10] = system: Mycobacterium vaccae (10670 M4); assay: agar diffusion antimicrobial assay; format: cell-based; conditions: Mycobacterium vaccae (10670 M4), 50 μL of 1 mg/mL in DMSO, 18 h, ciprofloxacin 5 µg/mL; for zone of inhibition at 1000 µg/mL: Mycolicibacterium vaccae, read-out: Inhibition Zone of Test Microorganism
Description: as §2

[11] = system: Staphylococcus aureus (511 B3); assay: agar diffusion antimicrobial assay; format: cell-based; conditions: 50 μL of 1 mg/mL in DMSO, 18 h, ciprofloxacin 5 µg/mL
Description: as §2

[12] = system: Enterococcus faecalis (VRE 1528 R10); assay: agar diffusion antimicrobial assay; format: cell-based; conditions: Enterococcus faecalis (VRE 1528 R10), 50 μL of 1 mg/mL in DMSO, 18 h, ciprofloxacin 5 µg/mL; for zone of inhibition at 1000 µg/mL: read-out: Inhibition Zone of Test Microorganism
Description: as §2

[13] = system: Escherichia coli (458 B4); assay: agar diffusion antimicrobial assay; format: cell-based; conditions: 50 μL of 1 mg/mL in DMSO, 18 h, ciprofloxacin 5 µg/mL
Description: as §2

[14] = system: Bacillus subtilis (6633 B1); assay: agar diffusion antimicrobial assay; format: cell-based; conditions: Bacillus subtilis (6633 B1), 50 μL of 1 mg/mL in DMSO, 18 h, ciprofloxacin 5 µg/mL; for zone of inhibition at 1000 µg/mL: read-out: Inhibition Zone of Test Microorganism
Description: as §2

[15] = cytotoxicity assay (methylene blue); format: cell-based, human; conditions: human, HeLa cells (DSM ACC 57); HeLa, 72 h; read-out: Cytotoxicity CC50 (CI 95%)
Description: as §1

[16] = system: Pseudomonas aeruginosa (K799/61 B9); assay: agar diffusion antimicrobial assay; format: cell-based; conditions: 18 h
Description: as §2

[17] = system: Pseudomonas aeruginosa (SG137 B7); assay: agar diffusion antimicrobial assay; format: cell-based; conditions: 50 μL of 1 mg/mL in DMSO, 18 h, ciprofloxacin 5 µg/mL
Description: as §2

[18] = system: three fungi and eight bacterial strains; assay: agar diffusion assay, whole panel; format: cell-based; conditions: eleven microorganisms
Description: as §2

[19] = Candida albicans (C.alb.H8), 50 μL of 1 mg/mL in DMSO, 18 h, 30 °C, amphotericin B 10 µg/mL
[20] = read-out: Inhibition Zone of Test Microorganism

Row | Molecule | Inhibition Zone of Test Microorganism [9] | CC50 at 72 h [15] | zone of inhibition at 1000 µg/mL [8, 19] | antifungal activity in words [8] | zone of inhibition at 1000 µg/mL [10] | zone of inhibition at 1000 µg/mL [12] | Inhibition Zone of Test Microorganism [17] | zone of inhibition at 1000 µg/mL [14] | GI50 ([2]; Homo sapiens) | GI50 ([3]; Homo sapiens) | GI50 ([4]; Homo sapiens, K562) | GI50 ([5]; Homo sapiens) | antimicrobial activity over the panel in words [18] | further results
1 | 3,5,3′-Trihydroxy-7,2′-dimethoxyflavonol [Compound 11] |  |  |  |  |  |  |  |  |  |  |  |  |  | CC50 [1]: > 100 µM; GI50 [2]: 67 µM; GI50 [3]: > 100 µM; GI50 [4]: 71.5 µM; GI50 [5]: 50.6 µM
2 | C[C@@H]1[C@H](O)[C@@H](C)/C=C/C=C/C=C/C=C/C=C/C=C/C=C/[C@H](O[C@@H]2O[C@H](C)[C@@H](O)[C@H](N)[C@@H]2O)C[C@@H]2O[C@](O)(C[C@@H](O)C[C@@H](O)[C@H](O)CC[C@@H](O)C[C@@H](O)CC(=O)O[C@H]1C)C[C@H](O)[C@H]2C(=O)O [Amphotericin B, reference compound] |  |  |  |  |  |  |  |  |  |  |  |  |  | Inhibition Zone of Test Microorganism ([6]; Penicillium notatum (JP36 P1), 50 μL of 1 mg/mL in DMSO, 18 h, 30 °C, amphotericin B 10 µg/mL): 19 mm; Inhibition Zone of Test Microorganism [7]: 19 mm; Inhibition Zone of Test Microorganism [8, 19]: 20 mm
3 | O=C(O)c1cn(C2CC2)c2cc(N3CCNCC3)c(F)cc2c1=O [Ciprofloxacin, reference compound] | - |  |  |  |  |  |  |  |  |  |  |  |  | Inhibition Zone of Test Microorganism [10]: 22 mm; Inhibition Zone of Test Microorganism [11]: 19 mm; Inhibition Zone of Test Microorganism [12]: 16 mm; Inhibition Zone of Test Microorganism [13]: 32 mm; Inhibition Zone of Test Microorganism [14]: 29 mm
4 | O=C1CC(c2cccc(O)c2O)Oc2cc3c(c(O)c21)OCO3 (centres unmarked) [Compound 5, 5,2′,3′-Trihydroxy-6,7-methylenedioxyflavanone] |  | > 100 µM | 13 mm | weak activity | 20 mm | 13 mm | - | 13 mm | > 100 µM | 69 µM | 44.3 µM | 16.5 µM | most active; also recorded: broad activity against eight microorganisms out of eleven | zone of inhibition at 1000 µg/mL ([6]; Penicillium chrysogenum, Penicillium notatum (JP36 P1), 50 μL of 1 mg/mL in DMSO, 18 h, 30 °C, amphotericin B 10 µg/mL, read-out: Inhibition Zone of Test Microorganism): 16 mm; antifungal activity in words ([6]; Penicillium notatum, agar diffusion): moderate activity; zone of inhibition at 1000 µg/mL [9, 20]: 13 mm; zone of inhibition at 1000 µg/mL ([16]; Pseudomonas aeruginosa, read-out: Inhibition Zone of Test Microorganism): 17 mm; zone of inhibition at 1000 µg/mL [11, 20]: 15 mm
5 | COc1cc2occ(-c3cccc(O)c3O)c(=O)c2c(O)c1OC [Compound 10, 5,2′,3′-Trihydroxy-6,7-dimethoxyisoflavone] | - | > 100 µM | 13 mm | weak activity | 16 mm | 13 mm | - | 13 mm | 98.8 µM | 35.8 µM | 7.6 µM | 9.1 µM | most active | Inhibition Zone of Test Microorganism ([16]; Pseudomonas aeruginosa (K799/61 B9), 50 μL of 1 mg/mL in DMSO, ciprofloxacin 5 µg/mL): -; antiproliferative activity in words ([4]; K-562): active; antiproliferative activity in words ([5]; THP-1): active
